Laboratory results published in patent US20230263712A1, “AN ORAL CARE ANTIMICROBIAL COMPOSITION, PROCESS FOR PREPARING THE SAME AND METHOD OF USE THEREOF” (ISP INVESTMENTS LLC, priority 2020, published 2023).
Like-named read-outs stand apart in the source and are kept apart here.

Tested on: Streptococcus mutans UA159
Test: Checkerboard microplate synergy assay (MIC, Synergy Index by the Kull method)
Type: cell-based
Details: for HPB Qa: MIC of compound A (HPB) when used in combination with compound B: HPB concentration in the combination with the labelled compound B; for SI index (Synergy Index = Qa/QA + Qb/QB): combination of HPB (raspberry ketone) with the labelled compound B, SI <1 synergistic
Description: The synergistic antimicrobial effect was determined using the commonly accepted method described by Kull […]. and Mayer, R. L. 1961. Applied Microbiology, 9:538-541 Brief description of the assay: Standard checkerboard approach was used to make all the dilutions. HPB (compound A) solution was prepared in DMSO and then serially diluted using a 96-well dilution plate. Automated liquid handler was then used to stamp multiple assay plates out of this dilution plate. Each well of the assay plate was then supplemented with a predetermined concentration of the second antimicrobial (compound B). The final concentration of DMSO was kept constant across the plate for each assay, not exceeding 3% (w/w). Then, S. mutans cell suspension in Todd Hewitt Broth supplemented with yeast extract (THYEB) was added to the appropriate wells of the assay plate with the final cell density being 10^6 cfu/ml. The assay plates were incubated for 48 hours at 37° C. in the atmosphere containing 5% CO2 prior to being evaluated. The lowest concentration of each compound (or a mixture of the two compounds) to inhibit visible growth was taken as the minimum inhibitory concentration (MIC). The MIC was taken as the end point of activity. End points for the combination of compound A (HPB) and compound B were then compared to the end points for each compound being used individually.

[1] = S. mutans, THYEB, 48 hours at 37° C., 5% CO2
[2] = Streptococcus mutans, UA159, S. mutans, THYEB, 48 hours at 37° C., 5% CO2, alone, read-out: Compound B QB: MIC of compound B acting alone

| SMILES | HPB Qa: MIC of compound A (HPB) when used in combination with compound B [1] | Compound B Qb: MIC of compound B when used in combination with compound A (HPB) [1] | SI index (Synergy Index = Qa/QA + Qb/QB) (S. mutans) | MIC [2] [µg/mL] | other results |
| --- | --- | --- | --- | --- | --- |
| N=C(NCCCCCCNC(=N)NC(=N)Nc1ccc(Cl)cc1)NC(=N)Nc1ccc(Cl)cc1.O=C(O)[C@H](O)[C@@H](O)[C@H](O)[C@H](O)CO.O=C(O)[C@H](O)[C@@H](O)[C@H](O)[C@H](O)CO [Chlorhexidine digluconate] | 4,000 ppm | 0.4 ppm | ≤0.75 |  | Compound B QB: MIC of compound B acting alone (S. mutans, THYEB, 48 hours at 37° C., 5% CO2, alone): 1.6 ppm |
| CC(=O)CCc1ccc(O)cc1 [HPB, 4-(4-hydroxyphenyl) butan-2-one] |  |  |  |  | MIC (Streptococcus mutans, UA159, S. mutans, THYEB, 48 hours at 37° C., 5% CO2, alone, read-out: HPB QA: MIC of compound A (HPB) acting alone): ≥ 8000 µg/mL |
| Cc1cc(O)ccc1C(C)C [Isopropyl Methylphenol (IPMP), 4-isopropyl-3-methyl phenol] | 125 ppm | 250 ppm | ≤0.5016 | 500 | SI index (Synergy Index = Qa/QA + Qb/QB) (S. mutans, listed as IPMP): ≤ 0.5016 |
| CC1CCC(C(C)C)C(O)C1 (centres unmarked) [Menthol] | 4,000 ppm | 1,000 ppm |  | ≥ 4000 |  |
| Cc1ccc(C(C)C)c(O)c1 [Thymol] | 4,000 ppm | 15.6 ppm | ≤0.625 | 125 | SI index (Synergy Index = Qa/QA + Qb/QB) (S. mutans, listed as thymol): ≤ 0.625 |
| CC12CCC(CC1)C(C)(C)O2 [eucalyptol] |  |  |  |  | MIC (alone, even when solubilized with 2% of Pluronic F-127): > 2%; Synergy with raspberry ketone (HPB) (standard synergy assay vs S. mutans): not detected |
